From US20220296566A1, “COMBINATION PRODUCT CONTAINING LIMONOID COMPOUND AND ALPHA-GLUCOSIDASE INHIBITOR” (ZHEJIANG YANGSHENGTANG INSTITUTE OF NATURAL MEDICATION CO., …, priority 2019, published 2022) come the findings set out here.

Holding throughout (assay type): in vivo
For one test, the system named is STZ mice. As to the kind of experiment: Blood glucose in mouse type II diabetes model with pancreatic islet damage and obesity, STZ plus high-fat diet (Example 5). To be noted: STZ + high-fat diet ICR mice; single agent 0.5 g/kg per day by gavage, two weeks; 1 h after last administration; mean ± SD. The text has this:
Effects of limonoid compound, acarbose or combination thereof on blood glucose in mouse type II diabetes model with pancreatic islet damage and obesity
In this example, a mouse model of type II diabetes with pancreatic islet damage and obesity was established by multiple modeling ICR mice with a small dose of streptozotocin (STZ), following with continuous high-fat diets (referring to literature: Zhang Jiyuan et al, Study on the effect of three plant extracts on improving glucose and lipid metabolism in type 2 diabetic mice, Food and Machinery, 2016, 32 (12): 142-147). […]
Experimental grouping: 15 male mice were randomly selected as the normal control group, and the remaining mice were subjected to a high-fat diet (high-fat diet formula: cholesterol 1%, egg yolk powder 10%, lard oil 10%, and basic feed 79%, for establishing an obesity mouse model) for consecutive 4 weeks and intraperitoneal injection of STZ at a dose of 35mg/kg for three consecutive days. After one week, the mice were subject to 24 hours of fasting and water deprivation, their fasting blood glucose was measured, and the mice with a blood glucose level of 15 to 25 mmol/L were selected and undifferentiatedly grouped and used in the experiment, continuously subjected to the high-fat diet, 15 mice in each group, and subjected to blood sampling and detection of indicators after 2 weeks of administration. […]

For test [1], the system named is db/db mice. The test can be described thus: Blood glucose in mouse type II diabetes model, db/db mice (Example 4). The settings on record: single agent 0.2 g/kg per day by gavage, two weeks, 1 h after last administration, mean ± SD. The text has this:
(§1) Effects of limonoid compound, acarbose or combination thereof on blood glucose and insulin in mouse type II diabetes model
(§2) In the present embodiment, the limonoid compound was selected from nomilin, deacetylnomilin, nomilin acid, deacetylnomilin acid glycoside, and acarbose single administration group, nomilin single administration group, deacetylnomilin single administration group, nomilin acid single administered group, deacetylnomilin acid glycoside single administration group, and respective combination thereof with acarbose administration groups were set.
Conditions for experimental feeding: as type II diabetes model mice, 6-week-old SPF-grade db/db mice were purchased from the Nanjing Model Biology Institute, and subjected to experimental feeding after 7 days of preliminary feeding. […]
Gavage doses: nomilin at a dose of 0.2 g/kg was gavaged per day for the nomilin group, deacetylnomilin at a dose of 0.2 g/kg was gavaged per day for the deacetylnomilin group, nomilin acid at a dose of 0.2 g/kg was gavaged per day for the nomilin acid group, deacetylnomilin acid glycoside at a dose of 0.2 g/kg was gavaged per day for the deacetylnomilin acid glycoside group, acarbose at a dose of 0.2 g/kg was gavaged per day for the acarbose group, nomilin at a dose of 0.1 g/kg and acarbose at a dose of 0.1 g/kg were simultaneously gavaged per day for the nomilin combination group, nomilin acid at a dose of 0.1 g/kg and acarbose at a dose of 0.1 g/kg were simultaneously gavaged per day for the nomilin acid combination group, deacetylnomilin at a dose of 0.1 g/kg and acarbose at a dose of 0.1 g/kg were simultaneously gavaged per day for the deacetylnomilin combination group, deacetylnomilin acid glycoside at a dose of 0.1 g/kg and acarbose at a dose of 0.1 g/kg were simultaneously gavaged per day for the deacetylnomilin acid glycoside combination group, the gavage volume was 10 mL/kg, and the normal group and the model group were administrated with 10 mL/kg of distilled water. […] The data were expressed as mean and standard deviation. […]

The subject of test [2] is db/db mice. The test can be described thus: Blood glucose in mouse type II diabetes model, db/db mice (Example 2). The settings on record: single agent 0.04 g/kg per day by gavage, two weeks, 1 h after last administration, mean ± SD. The text has this: (§3) Effects of limonoid compound, acarbose or combination thereof on blood glucose and leptin in mouse type II diabetes model
(§4) In the present example, db/db mice (line name BKS.Cg-Dock7^m+/+Lepr^db/Nju) were used to perform hypoglycemic efficacy evaluation test of animals (blood glucose level and leptin). The limonoid compound was selected from obacunone, isoobacunoic acid and obacunone glycoside, and acarbose single administration group, obacunone single administration group, isoobacunoic acid single administration group, obacunone glycoside single administered group, and respective combination thereof with acarbose administration groups were set.
(§5) Conditions for experimental feeding: as type II diabetes model mice, 6-week-old SPF-grade db/db mice were purchased from the Nanjing Model Biology Institute, and subjected to experimental feeding after 7 days of preliminary feeding. It should be noted that the conditions for raising the mice were as follows: the temperature was 23±1° C., the humidity was 55±10%, the lights were turned on between 7 am and 7 pm (the lights were turned off at other time), and the mice were allowed to freely take in water and feed. […]

Test [3] concerns db/db mice. The test can be described thus: Serum leptin by Elisa in db/db mice (Example 2). To be noted: single agent 0.04 g/kg per day by gavage, two weeks, mean ± SD.
Excerpt: as §3, §4, §5

Test [4] relates to db/db mice. As to the kind of experiment: Serum insulin by Elisa in db/db mice (Example 4). To be noted: single agent 0.2 g/kg per day by gavage, two weeks, mean ± SD.
Excerpt: as §1, §2
as §5, with “feed. The experimental feed was mouse growth-stable feed (GB M2118), and the daily feeding and management of the animals were under the responsibility of the animal security department, which provided the animals with sufficient diet and fresh drinking water daily.” for “feed.”

Take `CC(=O)O[C@@H]1CC(=O)OC(C)(C)[C@@H]2CC(=O)[C@]3(C)[C@H](CC[C@@](C)(C(O[C@@H]4O[C@H](CO)[C@@H](O)[C@H](O)[C@H]4O)c4ccoc4)C34OC4C(=O)O)[C@@]12C` (stereo partly drawn) [Nomilin glycoside, nomilin glycoside]: the Blood glucose value with STZ mice is listed as 12.8 ± 2.9 mmol/L.
Take `CC1(C)OC(=O)C[C@H](O)[C@]2(C)[C@H]3CC[C@@]4(C)[C@H](c5ccoc5)OC(=O)[C@H]5O[C@]54[C@]3(C)C(=O)C[C@@H]12` [Deacetylnomilin, deacetylnomilin]: the Blood glucose value in the test with db/db mice [1] came to 11.9 ± 2.9 mmol/L.
Same read-out and setting: then `CC(=O)O[C@H]1CC(=O)OC(C)(C)[C@@H]2CC(=O)[C@]3(C)[C@H](CC[C@@]4(C)[C@H](c5ccoc5)OC(=O)[C@H]5O[C@]543)[C@@]12C` [Nomilin, nomilin], with 10.1 ± 3.9 mmol/L.
For the compound `CC1(C)OC(=O)C=C[C@]2(C)[C@H]3CC[C@@](C)([C@@H](O[C@@H]4O[C@H](CO)[C@@H](O)[C@H](O)[C@H]4O)c4ccoc4)[C@@]4(O[C@@H]4C(=O)O)[C@]3(C)C(=O)C[C@@H]12` [Obacunone glycoside, obacunone glycoside], in the test on db/db mice [2], the Blood glucose value amounted to 13.7 ± 2.9 mmol/L. The Leptin in the test on db/db mice [3] came out at 28.55 ± 4.00 pg/mL.
Regarding nomilin acid, the Insulin with db/db mice [4] is 8.08 ± 1.49 pg/mL.
